Results taken from BindingDB's records for doi:10.1016/j.bmcl.2014.08.026 (Rhône-Poulenc Rorer, 2014).

Experiment: Antagonist activity at CRTH2 receptor in human whole blood assessed as inhibition of PGD2-induced eosinophil shape change after 10 mins by fluorescence assay

Cc1c(Cc2ccccc2S(=O)(=O)c2ccccc2)c2c(n1CC(=O)O)CCNC2=O
IC50: 8 nM
